Values after ≈ are worked out from the molar mass of the structure shown. Like-named read-outs stand apart in the source and are kept apart here.
How the values were obtained:
ACC2 = settings: enzyme isolated from rat, mouse, monkey and human; cited from earlier work
ACC1 = settings: enzyme isolated from rat, mouse, monkey and human; cited from earlier work
C. krusei ATCC 6258 = assay: Anti-Fungal (Candida) Activity Assay, broth microtiter MIC; format: cell-based, Candida krusei; settings: Pichia kudriavzevii, ATCC6258, 48 h, 3 replicates, MIC read at 48 h
Experimental: (§1) Compounds of the present invention were evaluated in an Anti-Fungal Activity Assay. An exemplary procedure for the assay, which measures the susceptibility of various Candida species to anti-fungal compounds, follows. Compounds to be tested (including fluconazole and amphotericin B) were dissolved in DMSO to obtain a solution having a concentration of 1 mg/mL. These stock solutions were sterile filtered using a 0.22 um nylon syringe filter, then diluted in sterile water to achieve a final concentration of 128 μg/mL.
(§2) All species were grown from frozen stock by directly plating on to freshly prepared Sabouraud Dextrose agar (BD, Difco) and incubated overnight in ambient air at 35° C. for 24 h. A direct suspension was prepared in RPMI 1640+MOPS (Lonza, Biowhittaker) by taking individual colonies from the overnight cultures using sterile swabs soaked in sterile saline. The concentration of the suspension was determined using pre-determined standard curves. These suspensions were then diluted down to 5×10^3 CFU/mL to achieve a final concentration of 2.5×10^3 CFU/mL once added to the microtiter plate as per CLSI guidelines (M27-A3, Vol. 28 No. 14).
(§3) Broth microtiter MIC challenge plates were prepared following CLSI guidelines (M27-A3, Vol. 28 No. 14). The original CLSI guidelines focused on reading Candida MICs after 48 h of incubation. As reading after only 24 h offers a clear advantage of patient care, QC limits are being established for all drugs at 24 h. That being said there are no known interpretive breakpoints for amphotericin B at 24 h and the current fluconazole interpretive breakpoints are based on a 48 h reading. The MIC for the test compounds were recorded at 48 h. All MIC determinations were achieved by visually comparing the growth found in the antibiotic challenged wells to that of the growth control.

C. albicans ATCC 90028 = assay: as above; format: cell-based; settings: ATCC90028, 48 h, 3 replicates, MIC read at 48 h
Experimental: as §1, §2, §3

[1] = tested on: C. parapsilosis ATCC 22019; assay: as above; format: cell-based; settings: Lodderomyces parapsilosis, ATCC22019, 48 h, 3 replicates, MIC read at 48 h
Experimental: as §1, §2, §3

hACC2 = hACC2 (Homo sapiens, UniProt O00763); assay: In vitro ACC2 inhibition assay (ADP-Glo), human ACC2; format: biochemical
Experimental: (§4) An exemplary procedure for the in vitro ACC inhibition assay, which can be used to determine the inhibitory action of compounds of the invention toward either human (hACC2) or fungal (fACC2) ACC2, follows. The ADP-Glo™ Kinase Assay kit from Promega was used. The ADP-Glo™ Kinase Assay is a luminescent ADP detection assay to measure enzymatic activity by quantifying the amount of ADP produced during an enzyme reaction. The assay is performed in two steps; first, after the enzyme reaction, an equal volume of ADP-Glo™ Reagent is added to terminate the reaction and deplete the remaining ATP. Second, the Kinase Detection Reagent is added to simultaneously convert ADP to ATP and allow the newly synthesized ATP to be measured using a luciferase/luciferin reaction. Luminescence can be correlated to ADP concentrations by using an ATP-to-ADP conversion curve. The detailed procedure is as follows. 50 μL of the compound being tested (600 μM in DMSO) was added to a 384-well dilution plate. The compound was diluted 1:3 in succession in DMSO for each row for 11 wells. 0.5 μL ACC2 working solution was added to 384-well white Optiplate assay plate. 0.5 μL diluted compound solution in each column from step 2 was added to assay plate, each row containing 2 replicates. For the last 2 rows, 0.5 μL negative control (DMSO) was added in one row and 0.5 μL positive control (compound I-97) in the other. The plates were incubated at room temperature for 15 minutes. 5 μL substrate working solution was added to each well to initiate reaction. Final ACC2 reaction concentrations consist of: 5 nM ACC2, 20 μM ATP, 20 μM acetyl-CoA, 12 mM NaHCO3, 0.01% Brij35, 2 mM DTT, 5% DMSO, test compound concentrations: 30 μM, 10 μM, 3.33 μM, 1.11 μM, 0.37 μM, 0.123 μM, 0.0411 μM, 0.0137 μM, 0.00457 μM, 0.00152 μM, and 0.00051 μM. Plates were incubated at room temperature for 60 minutes. 10 μL ADP glo reagent was added. Plates were incubated at room temperature for 40 minutes. 20 μL kinase detection reagent was added. Plates were incubated at room temperature for 40 minutes, and then read on a Perkin Elmer EnVision 2104 plate reader for luminescence as Relative Light Units (RLU).
(§5) Data for each concentration, as well as the positive and negative controls, were averaged, and the standard deviation calculated. Percent inhibition was calculated by the formula: 100×(average negative control−compound)/(average negative control−average positive control). The IC50 for each compound was calculated by fitting the data with a non-linear regression equation: Y=Bottom+(Top−Bottom)/(1+10^((Log IC50−X)*HillSlope)), where X is the log of compound concentration and Y is percent inhibition.

fACC2 = fACC2 (UniProt Q00955); assay: In vitro ACC2 inhibition assay (ADP-Glo), fungal ACC2; format: biochemical
Experimental: as §4, §5

[2] = tested on: Fusarium moniliforme (Fm); assay: Growth inhibition assay of fungal pathogens; format: cell-based; settings: Fusarium verticillioides, 48 h, read-out: Concentration at 90% Inhibition Fm
Experimental: (§6) Compounds of the present invention were evaluated in a growth inhibition assay to determine the ability to control the growth of fungal pathogens, such as Botrtyis cinerea (Bc), Collectotrichum graminicola (Cg), Diplodia maydis (Dm), Fusarium moniliforme (Fm), Fusarium virguhforme (Fv), Phytophthora capsici (Pc), Rhizoctonia solani (Rs), and Septoria tritici (St). Compounds to be tested were dissolved in DMSO at 2.5 mg/ml to produce compound stock solutions (“stocks”). Stocks were diluted with DMSO by a five-fold dilution in a 96-well stock plate, and two sets of final concentrations of 50, 10, and 2 ppm or 2, 0.4, and 0.08 ppm were obtained in vitro. A set of positive controls was also prepared, with various concentrations of Soraphen (2, 0.4, and 0.08 ppm), Metalaxyl (1.1, 0.22, and 0.04 ppm), and Metconazole (2, 0.4, and 0.08 ppm or 0.2, 0.04, and 0.008 ppm) after the five-fold dilutions. Negative controls on each plate included 2% DMSO, water, and a blank (media+2% DMSO). Fungal spores were isolated from previously sub-cultured plates of Botrtyis cinerea (Bc), Collectotrichum graminicola (Cg), Diplodia maydis (Dm), Fusarium moniliforme (Fm), Fusarium virguliforme (Fv), Phytophthora capsici (Pc), and Septoria tritici (St). The isolated spores were diluted to individual concentrations with a 17% V8 liquid media. For Rhizoctonia solani (Rs) and Pythium irregulare, 1.5 mm mycelial plugs were used in place of spores and ¼ Potato Dextrose Broth (PDB) was used for dilution. The spore concentrations and plug sizes were based on growth curves generated at 48 hours for each pathogen. In a second 96-well plate, the spores or mycelial plugs, media, diluted compound solutions, and controls were combined. Once the compound was added, a true final concentration of compound in each well was measured by an OD600 reading, which adjusted for any compound precipitation that might have occurred in the well. Plate readings were repeated at both 24 and 48 hours. The blank negative control was used as a background subtraction. Additional visual ratings were performed at both 24 and 48 hours for checking on precipitation and confirming efficacy. Visual and OD600 ratings of the compounds at 48 hours were compared to the 2% DMSO negative control, and the percent of pathogen growth inhibition was determined based on those values.

[3] = tested on: Fusarium virguliforme (Fv); assay: Growth inhibition assay of fungal pathogens; format: cell-based; settings: 48 h, Table 4b, read-out: Concentration at 90% Inhibition Fv
Experimental: as §6

[4] = tested on: Collectotrichum graminicola (Cg); assay: Growth inhibition assay of fungal pathogens; format: cell-based; settings: 48 h, Table 4b, read-out: Concentration at 90% Inhibition Cg
Experimental: as §6

Septoria tritici (St) = assay: Growth inhibition assay of fungal pathogens; format: cell-based; settings: Zymoseptoria tritici, 48 h, Table 4b, read-out: Concentration at 90% Inhibition St
Experimental: as §6

[5] = tested on: Phytophthora capsici (Pc); assay: Growth inhibition assay of fungal pathogens; format: cell-based; settings: 48 h, Table 4b, read-out: Concentration at 90% Inhibition Pc
Experimental: as §6

Diplodia maydis (Dm) = assay: Growth inhibition assay of fungal pathogens; format: cell-based; settings: Stenocarpella maydis, 48 h, Table 4b, read-out: Concentration at 90% Inhibition Dm
Experimental: as §6

Rhizoctonia solani (Rs) = assay: Growth inhibition assay of fungal pathogens; format: cell-based; settings: 48 h, Table 4b, read-out: Concentration at 90% Inhibition Rs
Experimental: as §6

Botrtyis cinerea (Bc) = assay: Growth inhibition assay of fungal pathogens; format: cell-based; settings: 48 h, Table 4b, read-out: Concentration at 90% Inhibition Bc
Experimental: as §6

Chain of hACC2 (O00763 whole entry): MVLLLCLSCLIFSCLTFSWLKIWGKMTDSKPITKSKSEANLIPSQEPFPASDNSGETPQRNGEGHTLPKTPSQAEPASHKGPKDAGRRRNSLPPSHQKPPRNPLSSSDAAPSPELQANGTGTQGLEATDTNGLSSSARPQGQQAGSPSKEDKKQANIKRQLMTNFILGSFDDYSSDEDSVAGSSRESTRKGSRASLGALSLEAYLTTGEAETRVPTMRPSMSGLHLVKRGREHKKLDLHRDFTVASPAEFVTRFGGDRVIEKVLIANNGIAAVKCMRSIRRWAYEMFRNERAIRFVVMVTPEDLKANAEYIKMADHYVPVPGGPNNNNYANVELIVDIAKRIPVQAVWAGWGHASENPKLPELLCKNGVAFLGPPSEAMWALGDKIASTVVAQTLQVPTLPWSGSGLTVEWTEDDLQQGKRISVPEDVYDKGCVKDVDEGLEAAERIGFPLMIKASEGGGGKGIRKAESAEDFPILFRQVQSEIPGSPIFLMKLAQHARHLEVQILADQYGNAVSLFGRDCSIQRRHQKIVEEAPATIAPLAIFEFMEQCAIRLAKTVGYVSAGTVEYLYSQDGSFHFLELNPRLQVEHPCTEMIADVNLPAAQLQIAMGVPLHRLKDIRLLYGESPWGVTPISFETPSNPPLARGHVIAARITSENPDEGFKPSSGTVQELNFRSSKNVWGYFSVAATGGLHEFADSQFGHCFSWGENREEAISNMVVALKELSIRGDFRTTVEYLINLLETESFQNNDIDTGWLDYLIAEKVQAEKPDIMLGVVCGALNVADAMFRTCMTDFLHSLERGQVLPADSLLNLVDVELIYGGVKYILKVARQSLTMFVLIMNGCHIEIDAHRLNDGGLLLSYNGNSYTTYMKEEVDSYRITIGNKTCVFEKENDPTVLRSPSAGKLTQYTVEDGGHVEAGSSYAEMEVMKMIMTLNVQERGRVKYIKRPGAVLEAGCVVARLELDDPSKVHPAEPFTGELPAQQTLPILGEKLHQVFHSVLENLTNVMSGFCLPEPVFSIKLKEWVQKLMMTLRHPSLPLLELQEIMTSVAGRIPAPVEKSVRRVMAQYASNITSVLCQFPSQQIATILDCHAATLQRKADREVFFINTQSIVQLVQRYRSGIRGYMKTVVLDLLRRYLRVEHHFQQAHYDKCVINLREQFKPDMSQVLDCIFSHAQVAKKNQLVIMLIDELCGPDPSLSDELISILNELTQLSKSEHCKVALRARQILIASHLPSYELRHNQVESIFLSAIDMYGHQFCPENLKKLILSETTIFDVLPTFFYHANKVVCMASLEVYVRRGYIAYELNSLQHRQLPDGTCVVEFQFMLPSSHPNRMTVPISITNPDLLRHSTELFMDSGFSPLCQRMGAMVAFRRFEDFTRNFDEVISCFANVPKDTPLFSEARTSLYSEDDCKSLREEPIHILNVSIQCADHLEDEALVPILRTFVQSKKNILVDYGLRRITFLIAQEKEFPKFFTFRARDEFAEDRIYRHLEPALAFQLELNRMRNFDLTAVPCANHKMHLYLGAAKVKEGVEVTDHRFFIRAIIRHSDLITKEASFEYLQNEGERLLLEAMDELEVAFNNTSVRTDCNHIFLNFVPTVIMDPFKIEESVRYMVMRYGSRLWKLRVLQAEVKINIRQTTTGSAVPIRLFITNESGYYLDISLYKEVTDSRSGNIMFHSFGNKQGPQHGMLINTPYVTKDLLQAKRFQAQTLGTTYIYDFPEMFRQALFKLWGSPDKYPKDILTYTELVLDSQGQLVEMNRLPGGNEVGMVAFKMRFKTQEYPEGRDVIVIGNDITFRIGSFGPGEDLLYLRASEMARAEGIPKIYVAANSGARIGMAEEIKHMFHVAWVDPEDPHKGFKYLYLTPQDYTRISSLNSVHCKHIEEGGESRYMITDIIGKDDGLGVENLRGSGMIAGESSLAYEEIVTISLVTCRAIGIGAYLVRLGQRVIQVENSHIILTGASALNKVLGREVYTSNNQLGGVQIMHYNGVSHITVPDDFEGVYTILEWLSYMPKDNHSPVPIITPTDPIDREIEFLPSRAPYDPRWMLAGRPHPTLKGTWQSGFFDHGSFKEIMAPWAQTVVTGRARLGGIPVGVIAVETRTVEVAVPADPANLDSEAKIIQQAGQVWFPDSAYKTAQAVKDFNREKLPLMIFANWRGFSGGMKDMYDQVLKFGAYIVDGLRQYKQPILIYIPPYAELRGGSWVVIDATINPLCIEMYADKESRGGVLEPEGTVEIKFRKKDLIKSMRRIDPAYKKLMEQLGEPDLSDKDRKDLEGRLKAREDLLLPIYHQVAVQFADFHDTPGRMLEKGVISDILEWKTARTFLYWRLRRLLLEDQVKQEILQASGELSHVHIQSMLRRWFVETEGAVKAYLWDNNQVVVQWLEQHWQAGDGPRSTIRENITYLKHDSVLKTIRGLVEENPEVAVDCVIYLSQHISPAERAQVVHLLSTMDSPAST
Chain of fACC2 (Q00955 whole entry): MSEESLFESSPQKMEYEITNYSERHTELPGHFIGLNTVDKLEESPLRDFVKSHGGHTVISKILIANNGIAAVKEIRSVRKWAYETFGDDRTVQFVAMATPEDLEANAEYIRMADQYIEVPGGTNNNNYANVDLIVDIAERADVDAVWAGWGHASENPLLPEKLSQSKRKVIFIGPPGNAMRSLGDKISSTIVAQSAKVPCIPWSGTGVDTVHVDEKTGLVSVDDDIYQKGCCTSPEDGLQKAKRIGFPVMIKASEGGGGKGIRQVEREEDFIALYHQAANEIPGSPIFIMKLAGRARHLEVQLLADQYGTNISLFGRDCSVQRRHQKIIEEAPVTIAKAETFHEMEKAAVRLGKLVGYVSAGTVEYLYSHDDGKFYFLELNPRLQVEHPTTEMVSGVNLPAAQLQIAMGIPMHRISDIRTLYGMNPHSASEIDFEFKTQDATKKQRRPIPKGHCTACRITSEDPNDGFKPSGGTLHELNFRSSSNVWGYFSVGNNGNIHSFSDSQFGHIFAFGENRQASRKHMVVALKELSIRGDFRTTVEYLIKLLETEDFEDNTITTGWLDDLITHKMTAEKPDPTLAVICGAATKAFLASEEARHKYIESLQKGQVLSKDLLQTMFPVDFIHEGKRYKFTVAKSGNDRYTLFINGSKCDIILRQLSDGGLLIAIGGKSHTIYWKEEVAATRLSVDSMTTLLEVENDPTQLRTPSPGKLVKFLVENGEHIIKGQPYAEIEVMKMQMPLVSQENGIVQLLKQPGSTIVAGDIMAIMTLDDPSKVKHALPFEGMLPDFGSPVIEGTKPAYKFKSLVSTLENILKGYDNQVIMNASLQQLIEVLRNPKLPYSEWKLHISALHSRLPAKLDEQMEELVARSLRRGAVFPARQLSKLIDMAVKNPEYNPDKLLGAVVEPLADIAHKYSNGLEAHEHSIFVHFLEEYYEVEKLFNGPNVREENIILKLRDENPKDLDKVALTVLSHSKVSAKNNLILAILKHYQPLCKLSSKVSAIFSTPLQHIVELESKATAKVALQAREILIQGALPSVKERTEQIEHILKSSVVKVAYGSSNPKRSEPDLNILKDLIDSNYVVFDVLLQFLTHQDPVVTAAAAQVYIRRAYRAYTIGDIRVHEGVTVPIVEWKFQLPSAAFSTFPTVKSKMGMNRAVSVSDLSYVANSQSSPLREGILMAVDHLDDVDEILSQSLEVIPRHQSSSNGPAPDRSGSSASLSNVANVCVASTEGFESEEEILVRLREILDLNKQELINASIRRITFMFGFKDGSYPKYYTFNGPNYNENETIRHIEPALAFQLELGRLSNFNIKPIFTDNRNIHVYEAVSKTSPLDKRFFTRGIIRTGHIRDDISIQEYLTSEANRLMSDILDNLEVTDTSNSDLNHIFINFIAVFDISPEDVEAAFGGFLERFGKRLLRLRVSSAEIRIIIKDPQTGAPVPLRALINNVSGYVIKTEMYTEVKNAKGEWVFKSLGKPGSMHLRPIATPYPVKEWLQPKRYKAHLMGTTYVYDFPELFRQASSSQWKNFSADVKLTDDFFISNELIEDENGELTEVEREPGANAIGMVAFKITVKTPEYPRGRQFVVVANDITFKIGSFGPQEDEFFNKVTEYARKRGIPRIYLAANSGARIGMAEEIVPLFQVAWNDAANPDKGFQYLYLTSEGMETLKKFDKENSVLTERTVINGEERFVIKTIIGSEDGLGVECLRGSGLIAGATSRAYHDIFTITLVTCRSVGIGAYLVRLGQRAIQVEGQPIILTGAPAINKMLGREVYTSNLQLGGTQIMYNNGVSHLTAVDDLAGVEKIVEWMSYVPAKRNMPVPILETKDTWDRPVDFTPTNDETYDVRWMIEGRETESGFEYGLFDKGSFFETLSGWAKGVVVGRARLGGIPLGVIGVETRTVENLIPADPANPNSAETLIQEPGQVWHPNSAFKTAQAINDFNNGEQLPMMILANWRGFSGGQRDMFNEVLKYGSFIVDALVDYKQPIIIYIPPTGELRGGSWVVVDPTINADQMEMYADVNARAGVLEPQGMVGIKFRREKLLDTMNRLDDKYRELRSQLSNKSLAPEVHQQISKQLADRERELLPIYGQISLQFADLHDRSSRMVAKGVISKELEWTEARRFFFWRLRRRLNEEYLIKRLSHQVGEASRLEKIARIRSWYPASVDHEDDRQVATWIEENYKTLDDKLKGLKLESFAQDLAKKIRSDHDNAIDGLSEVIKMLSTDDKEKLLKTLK

## O=C(c1c2ccccc2cc2ccccc12)N1CCC(N2CCC[C@@H](C(=O)N3CCOCC3)C2)CC1 [CP-640186]
ACC2
  IC50: ~0.06 µM
ACC1
  IC50: ~0.06 µM

## CCNC(=O)C(C)(C)n1c(=O)c2c(C)c(C(=O)OCC)sc2n(C[C@H](OC2CCOCC2)c2ccccc2OC)c1=O [Compound I-1, ethyl (R)-3-(1-(ethylamino)-2-methyl-1-oxopropan-2-yl)-1-(2-(2-methoxyphenyl)-2-((tetrahydro-2H-pyran-4-yl)oxy)ethyl)-5-methyl-2,4-dioxo-1,2,3,4-tetrahydrothieno[2,3-d]pyrimidine-6-carboxylate]
C. krusei ATCC 6258; Table 3a
  MIC: 0.25 to 1 mg/L (≈ 0.415 to 1.66 µM)
C. krusei ATCC 6258; Table 3b (additional results)
  MIC: 2.1 to 4 mg/L (≈ 3.49 to 6.65 µM)
C. albicans ATCC 90028; Table 3a
  MIC: 0.25 to 1 mg/L (≈ 0.415 to 1.66 µM)
C. albicans ATCC 90028; Table 3b (additional results)
  MIC: 0.25 to 1 mg/L (≈ 0.415 to 1.66 µM)
[1]; Table 3a
  MIC: 1.1 to 2 mg/L (≈ 1.83 to 3.32 µM)
[1]; Table 3b (additional results)
  MIC: 2.1 to 4 mg/L (≈ 3.49 to 6.65 µM)
hACC2; Table 2a
  IC50: 0.003 to 0.01 µM
hACC2; Table 2b (additional results)
  IC50: 0.003 to 0.01 µM
fACC2; Table 2a
  IC50: 0.0006 to 0.003 µM
fACC2; Table 2b (additional results)
  IC50: 0.0003 to 0.003 µM
[2]; Table 4a
  IC90: ≥ 50 mg/L
[2]; Table 4b
  IC90: ≥ 50 mg/L

## CCOC(=O)c1sc2c(c1C)c(=O)n([C@H](C)C(=O)N(C)C(C)C)c(=O)n2C[C@H](OCCO)c1cc(F)ccc1OC [Compound I-30, ethyl 1-((R)-2-(5-fluoro-2-methoxyphenyl)-2-(2-hydroxy-ethoxy)ethyl)-3-((R)-1-(isopropyl(methyl)amino)-1-oxopropan-2-yl)-5-methyl-2,4-dioxo-1,2,3,4-tetrahydrothieno[2,3-d]pyrimidine-6-carboxylate]
C. krusei ATCC 6258; Table 3b (additional results)
  MIC: 0.25 to 1 mg/L (≈ 0.421 to 1.68 µM)
C. albicans ATCC 90028; Table 3b (additional results)
  MIC: 1.1 to 2 mg/L (≈ 1.85 to 3.37 µM)
[1]; Table 3b (additional results)
  MIC: 0.25 to 1 mg/L (≈ 0.421 to 1.68 µM)
hACC2; Table 2b (additional results)
  IC50: 0.01 to 0.04 µM
fACC2; Table 2b (additional results)
  IC50: 0.0003 to 0.003 µM

## CCOC(=O)c1sc2c(c1C)c(=O)n(C(C)(C)C(=O)NC(C)C)c(=O)n2CCc1cc(F)ccc1OCCC#N [Compound I-45, ethyl 1-(2-(2-cyanoethoxy)-5-fluorophenethyl)-3-(1-(isopropylamino)-2-methyl-1-oxopropan-2-yl)-5-methyl-2,4-dioxo-1,2,3,4-tetrahydro-thieno[2,3-d]pyrimidine-6-carboxylate]
hACC2; Table 2b (additional results)
  IC50: ≥ 0.04 µM
fACC2; Table 2b (additional results)
  IC50: 0.003 to 0.01 µM
[3]
  IC90: 2 mg/L (≈ 3.49 µM)
[4]
  IC90: ≥ 50 mg/L
Septoria tritici (St)
  IC90: ≥ 50 mg/L
[5]
  IC90: ≥ 50 mg/L
Diplodia maydis (Dm)
  IC90: ≥ 50 mg/L
[2]; Table 4b
  IC90: 2 mg/L (≈ 3.49 µM)
Rhizoctonia solani (Rs)
  IC90: ≥ 50 mg/L
Botrtyis cinerea (Bc)
  IC90: 10 mg/L (≈ 17.5 µM)
